Source: patent publication US20250057802A1, “BROAD-SPECTRUM ANTIVIRAL DRUGS” (FRAUNHOFER-GESELLSCHAFT ZUR FÖRDERUNG DER ANGEWANDTEN …, priority 2021, published 2025)

Key:
SARS-CoV-2 = SARS-CoV-2 viral inhibition assay on Vero E6 cells; assay type: cell-based; details: Severe acute respiratory syndrome coronavirus 2, Vero C1008, virus incubated with compound 10 min at 37° C., 27 hours post-infection
HEp-2 cells = experiment: in vitro cytotoxicity analysis (CellTiter-Glo Luminescent Cell Viability Assay); assay type: cell-based, human; set-up: unit not given here; details: without RSV-infection, 48 h post-treatment
Method: FIG. 1A, FIG. 2A, FIG. 3A, FIG. 4A, FIG. 5A, and FIG. 6A show dose-response curves for identified inhibitors against RSV. RSV was incubated with increasing concentrations of compounds for 10 min at 37° C. before the compound-virus mixtures were added to human epithelial cells (HEp-2). 2 dpi, infection rates were measured by counting infected cells. Vehicle-treated cells were set as the reference at 100% and used to normalize the data. Shown values represent mean±SD (n=3). The IC50 was determined by fitting the data to a dose-response curve using nonlinear regression analysis (GraphPad Prism, version 6.02). FIG. 1B, FIG. 2B, FIG. 3B, FIG. 4B, FIG. 5B, and FIG. 6B show dose-response curves for identified inhibitors (the same as identified at the top of the respective figures) in in vitro cytotoxicity analysis. HEp-2 cells were treated with increasing concentration of compounds without RSV-infection to assess potential cytotoxicity of the compounds. 48 h post-treatment cells were analyzed using CellTiter-Glo® Luminescent Cell Viability Assay (Promega) to determine cell viability rates. Vehicle-treated cells were set as the reference at 100% of viability and used to normalize the data. Shown values represent mean+SD (n=3).

RSV = experiment: in vitro RSV inhibitory assay (virus pre-incubated with compound, HEp-2 cells, infected cells counted); assay type: cell-based, Human orthopneumovirus (RSV); details: human respiratory syncytial virus, 10 min; RSV incubated with compound 10 min at 37° C., added to HEp-2 cells, 2 dpi
stability in solution = assay type: physicochemical; details: 500 μM in DMSO/PBS (5:95 v/v); room temperature or 37° C.; versus 4,5-DCQA (reference)

| SMILES | IC50 (SARS-CoV-2) [nM] | Cytotoxic concentration on HEp-2 cells (HEp-2 cells) | IC50 (RSV) [nM] | stability in solution (stability in solution) |
| --- | --- | --- | --- | --- |
| O=C(/C=C/c1ccc(O)c(O)c1)O[C@@H]1[C@H](O)C[C@@](O)(C(=O)O)C[C@H]1OC(=O)/C=C/c1ccc(O)c(O)c1 [4,5-DCQA, reference compound] | 218 | >80000 | 1090 |  |
| O=C(OCCCOC(=O)c1cc(O)c(O)c(O)c1)c1cc(O)c(O)c(O)c1 [Compound 1, 3-(3,4,5-trihydroxybenzoyl)oxypropyl 3,4,5-trihydroxybenzoate] |  | 72737 | 129 |  |
| O=C(OCCCCCOC(=O)c1cc(O)c(O)c(O)c1)c1cc(O)c(O)c(O)c1 [Compound 2, 5-(3,4,5-trihydroxybenzoyl)oxypentyl 3,4,5-trihydroxybenzoate] |  | >80000 | 4960 |  |
| O=C(OCCCCCCCCOC(=O)c1cc(O)c(O)c(O)c1)c1cc(O)c(O)c(O)c1 [Compound 3, 8-(3,4,5-trihydroxybenzoyl)oxyoctyl 3,4,5-trihydroxybenzoate] |  | 9197 | 145 |  |
| CC(C)(COC(=O)c1cc(O)c(O)c(O)c1)COC(=O)c1cc(O)c(O)c(O)c1 [Compound 4, [2,2-dimethyl-3-(3,4,5-trihydroxybenzoyl)oxy-propyl]3,4,5-trihydroxybenzoate] |  | 63163 | 162 |  |
| O=C(OCCOCCOC(=O)c1cc(O)c(O)c(O)c1)c1cc(O)c(O)c(O)c1 [Compound 5, 2-[2-(3,4,5-trihydroxybenzoyl)oxyethoxy]ethyl 3,4,5-trihydroxybenzoate] |  | 638066 | 9330 |  |
| O=C(O[C@@H]1CCC[C@H](OC(=O)c2cc(O)c(O)c(O)c2)C1)c1cc(O)c(O)c(O)c1 [Compound 6, [(1R,3S)-3-(3,4,5-trihydroxybenzoyl)oxycyclohexyl]3,4,5-trihydroxybenzoate] |  | 61709 | 165 |  |
| O=C(OCC(O)COC(=O)c1cc(O)c(O)c(O)c1)c1cc(O)c(O)c(O)c1 [Compound 7, [2-hydroxy-3-(3,4,5-trihydroxybenzoyl)oxy-propyl]3,4,5-trihydroxybenzoate] |  | >80000 | 339 |  |
| NC(COC(=O)c1cc(O)c(O)c(O)c1)COC(=O)c1cc(O)c(O)c(O)c1 [Compound 8, [2-amino-3-(3,4,5-trihydroxybenzoyl)oxy-propyl]3,4,5-trihydroxybenzoate] |  | 66234 | 87.7 |  |
| O=C(OCC(COC(=O)c1cc(O)c(O)c(O)c1)OC(=O)c1cc(O)c(O)c(O)c1)c1cc(O)c(O)c(O)c1 [Compound 9, 2,3-bis[(3,4,5-trihydroxybenzoyl)oxy]propyl 3,4,5-trihydroxybenzoate] |  | 49099.5 | 55.5 |  |
| O=C(OCC(COC(=O)c1cc(O)c(O)c(O)c1)COC(=O)c1cc(O)c(O)c(O)c1)c1cc(O)c(O)c(O)c1 [Compound 10, [3-(3,4,5-trihydroxybenzoyl)oxy-2-[(3,4,5-trihydroxybenzoyl)oxymethyl]propyl]3,4,5-trihydroxybenzoate] |  | 75145 | 47.2 |  |
| CC(COC(=O)c1cc(O)c(O)c(O)c1)(COC(=O)c1cc(O)c(O)c(O)c1)COC(=O)c1cc(O)c(O)c(O)c1 [Compound 11, [2-methyl-3-(3,4,5-trihydroxybenzoyl)oxy-2-[(3,4,5-trihydroxybenzoyl)oxymethyl]-propyl]3,4,5-trihydroxybenzoate] |  | 47303 | 36.7 |  |
| CC(COC(=O)c1ccccc1)(COC(=O)c1cc(O)c(O)c(O)c1)COC(=O)c1cc(O)c(O)c(O)c1 [Compound 12, [2-(benzoyloxymethyl)-2-methyl-3-(3,4,5-trihydroxybenzoyl)oxy-propyl]3,4,5-trihydroxybenzoate] |  | 34098.5 | 105 |  |
| CC(COC(=O)c1ccccc1)(COC(=O)c1ccccc1)COC(=O)c1cc(O)c(O)c(O)c1 [Compound 13, [3-benzoyloxy-2-(benzoyloxymethyl)-2-methyl-propyl]3,4,5-trihydroxybenzoate] |  | 13042 | 480 |  |
| O=C(NCCCNC(=O)c1cc(O)c(O)c(O)c1)c1cc(O)c(O)c(O)c1 [Compound 14, 3,4,5-trihydroxy-N-[3-[(3,4,5-trihydroxybenzoyl)amino]propyl]benzamide] |  | 15677 | 367 |  |
| O=C(NCCCCCNC(=O)c1cc(O)c(O)c(O)c1)c1cc(O)c(O)c(O)c1 [Compound 15, 3,4,5-trihydroxy-N-[5-[(3,4,5-trihydroxybenzoyl)amino]pentyl]benzamide] |  | 45401 | 408 |  |
| O=C(NCCCCCCCCCCNC(=O)c1cc(O)c(O)c(O)c1)c1cc(O)c(O)c(O)c1 [Compound 16, 3,4,5-trihydroxy-N-[10-[(3,4,5-trihydroxybenzoyl)amino]decyl]benzamide] |  | >80000 | 767 |  |
| O=C(NCCN(CCNC(=O)c1cc(O)c(O)c(O)c1)C(=O)c1cc(O)c(O)c(O)c1)c1cc(O)c(O)c(O)c1 [Compound 17, 3,4,5-trihydroxy-N-[2-[(3,4,5-trihydroxybenzoyl)-[2-[(3,4,5-trihydroxybenzoyl)-amino]-ethyl]amino]ethyl]benzamide] |  | 36216 | 155 |  |
| CC(CNC(=O)c1cc(O)c(O)c(O)c1)(CNC(=O)c1cc(O)c(O)c(O)c1)CNC(=O)c1cc(O)c(O)c(O)c1 [Compound 18, 3,4,5-trihydroxy-N-[2-methyl-3-[(3,4,5-trihydroxybenzoyl)amino]-2-[[(3,4,5-trihydroxy-benzoyl)amino]methyl]propyl]benzamide] |  | >80000 | 59.5 |  |
| CC(CNC(=O)c1ccc(O)cc1)(CNC(=O)c1ccc(O)cc1)CNC(=O)c1ccc(O)cc1 [Compound 19, 4-hydroxy-N-[3-[(4-hydroxybenzoyl)amino]-2-[[(4-hydroxybenzoyl)amino]methyl]-2-methyl-propyl]benzamide] |  | >80000 |  |  |
| CC(CNC(=O)c1cccc(O)c1)(CNC(=O)c1cccc(O)c1)CNC(=O)c1cccc(O)c1 [Compound 20, 3-hydroxy-N-[3-[(3-hydroxybenzoyl)amino]-2-[[(3-hydroxybenzoyl)amino]methyl]-2-methyl-propyl]benzamide] |  | 76260 |  |  |
| CC(CNC(=O)c1ccc2c(c1)OCO2)(CNC(=O)c1ccc2c(c1)OCO2)CNC(=O)c1ccc2c(c1)OCO2 [Compound 21, N-[3-(1,3-benzodioxole-5-carbonylamino)-2-[(1,3-benzodioxole-5-carbonylamino)-methyl]-2-methyl-propyl]-1,3-benzodioxole-5-carboxamide] |  | >80000 |  |  |
| CC(CNC(=O)c1ccc(O)cc1O)(CNC(=O)c1ccc(O)cc1O)CNC(=O)c1ccc(O)cc1O [Compound 22, N-[3-[(2,4-dihydroxybenzoyl)amino]-2-[[(2,4-dihydroxybenzoyl)amino]methyl]-2-methyl-propyl]-2,4-dihydroxy-benzamide] | 75.1 | 17473 |  |  |
| CC(CNC(=O)c1ccc(O)c(O)c1)(CNC(=O)c1ccc(O)c(O)c1)CNC(=O)c1ccc(O)c(O)c1 [Compound 23, N-[3-[(3,4-dihydroxybenzoyl)amino]-2-[[(3,4-dihydroxybenzoyl)amino]methyl]-2-methyl-propyl]-3,4-dihydroxy-benzamide] | 26 | >80000 | 35.7 | improved stability |
| CC(CNC(=O)c1cccc(O)c1O)(CNC(=O)c1cccc(O)c1O)CNC(=O)c1cccc(O)c1O [Compound 24, N-[3-[(2,3-dihydroxybenzoyl)amino]-2-[[(2,3-dihydroxybenzoyl)amino]methyl]-2-methyl-propyl]-2,3-dihydroxy-benzamide] |  | 5822.5 |  |  |
